Experimental data taken from US10144929B2, “Polypeptide inhibitors of Smad3 polypeptide activities” (Mayo Foundation for Medical Education and Research, priority 2016, dated 2018).

Legend:
CTS SSCT fibroblasts = test: TGF-β responsive gene expression in CTS subsynovial connective tissue fibroblasts (qRT-PCR); format: cell-based, human; details: 1.5 μM, 90 minutes pretreatment, 2 ng/mL TGF-β 24 hours
From the text: FIG. 8 is a graph plotting the expression of CTGF. TGFβ stimulated CTGF gene expression was examined in subsynovial connective tissue as in FIGS. 3D and 4B following addition of TAT-SH3-2 (SNX9 peptide) or TAT-SH3-2M (Control peptide). The results were normalized to control treatments without TGFβ.
FIG. 9 is a graph plotting the expression of PAI-1 by cells exposed to the indicated treatments. TGFβ stimulated PAI-1 gene expression was examined in subsynovial connective tissue as in FIG. 8.
Fibroblasts were harvested from CTS patient SSCT tissue (n=3) who had carpal tunnel release surgery as described elsewhere (Gingery et al., J. Orthop. Res., 32(11):1444-50 (2014)). The CTS SSCT fibroblasts were cultured in Minimum Essential Media (MEM) supplemented with 10% fetal bovine serum (FBS) and 1% antibiotic/antimycotic. […]
Total RNA was isolated gene expression was evaluated using quantitative real-time polymerase chain reaction (qRT-PCR) as described elsewhere (Gingery et al., J. Orthop. Res., 32(11):1444-50 (2014)). TGF-β responsive genes (connective tissue growth factor (CTGF) and plasminogen activator inhibitor-1 (PAI-1)) were evaluated with TATA binding protein as the housekeeping gene.
Statistical analysis of qRT-PCR gene expression was normalized to control, and significance was determined by unpaired Student's t-test for each gene. […]

AKR-2B cells = test: Soft agar colony formation (anchorage-independent growth, AIG); format: cell-based; details: 1.5 μM polypeptide, TGFβ 10 ng/mL, seven days
Description: FIGS. 2A-C. TAT-SH3 inhibits Smad3-dependent responses. (A) AKR-2B cells were transiently transfected with a Smad3 (3TP), Smad2 (ARE), or Smad1/5/8 (BRE) reporter construct, and luciferase activity determined following 12 hours incubation in the absence (−) or presence (+) of the indicated ligand (5 ng/mL TGFβ; 10 ng/mL BMP4) or TAT-SNX9(SH3) fusion polypeptide (1.5 μM). Data represent the mean+/−SEM of three experiments. (B) RT-PCR analysis of Smad3 (PAI-1 and CTGF) and Smad2 (MMP2) responsive gene following 24 hour treatment of AKR-2B cells with the indicated concentration of TAT-SNX9(SH3) fusion polypeptide or 5 ng/mL TGFβ. Loading was verified by GAPDH expression. (C) Soft agar colony formation was performed following seven days growth in the presence (+) or absence (−) of TGFβ (10 ng/mL) or the indicated TAT-SNX9(SH3) fusion polypeptide (1.5 μM). […]
FIGS. 3A-E. Inhibition of Smad3 signaling by a defined region of the SH3 domain in SNX9. […] (B) Nuclear fractions were prepared and assessed as in FIG. 1B following transduction with the indicated TAT-SNX9(SH3) fusion polypeptide (Left). Quantitation (mean+/−sd) of nuclear pSmad2 or pSmad3 from 2 experiments (Right). (C) Immunofluorescence of nuclear Smad3 was determined as in FIG. 1C from 30 cells in each of two experiments in the absence (−) or presence (+) of 5 ng/mL TGFβ and the indicated TAT-SNX9(SH3) fusion polypeptide (1.5 μM). […]

TAT-SH3-2: TAT-SNX9(SH3) fusion polypeptide having SNX9 amino acids 21-51 (31 mer) (TVNEGEIITITNPDVGGGWLEGRNIKGERGL; left off: small tags and cut ends)
expression of PAI-1 (CTS SSCT fibroblasts): No significant differences | CTGF gene expression (CTS SSCT fibroblasts; compared with vehicle, P<0.05): down regulated | TGFβ-stimulated anchorage-independent growth in soft agar (AIG) (AKR-2B cells): prevented
